Reference: US12496301B2, “Use of androgen receptor degrader for the treatment of spinal and bulbar muscular atrophy” (Arvinas Operations, Inc., priority 2023, dated 2025)
Where two headings read alike, the source gives them in different places.

Columns and labels:
[1] = system: AR; test: AR degradation in hiPSC myotubes in the presence of dihydrotestosterone (DHT); type: cell-based, human
Excerpt: FIG. 11 is a representative dose response curve showing mean AR concentration in DMSO treated cells plotted against Compound A concentration in SBMA patient-derived hiPSC lines differentiated into myotubes.
Control and SBMA hiPSCs were differentiated into myotubes as previously described (Caron, L. et al. 2016, STEM CELLS Transl. Med. 5, 1145-1161) using the skeletal muscle differentiation kit (Amsbio). hiPSCs were dissociated to single cells using Accutase and plated on Geltrex-coated 10 cm culture plates at a density of 200,000 cells per plate with SBMA hiPSCs in skeletal muscle induction media (SKM01, AMSBIO). Media changes were performed every second day until cells were confluent (˜7 days). The resulting myogenic precursor cells were then dissociated to single cells using Accutase and replated on Matrigel-coated 24-well tissue culture plate with 500 μL of cells at 35,000 cells per mL in skeletal myoblast media (SKM02, AMSBIO). Half media changes were performed every second day until myoblasts reached confluence (˜7 days). The media was then switched to myotube medium (SKM03, ASMBIO). Media changes every second day until myotube formation was confirmed by microscopy. […] AR protein was measured by capillary electrophoresis. […]

[2] = biological target: T1, PDE6D (Homo sapiens, UniProt O43924); test: Global proteomics / Western blot in SBMA hiPSC-myotubes: neosubstrate PDE6D; type: cell-based; settings: hiPSC-myotubes, data not shown
T1 construct: endogenous in cells; host or cells: SBMA hiPSC-derived myotubes
T1 sequence (O43924 whole entry): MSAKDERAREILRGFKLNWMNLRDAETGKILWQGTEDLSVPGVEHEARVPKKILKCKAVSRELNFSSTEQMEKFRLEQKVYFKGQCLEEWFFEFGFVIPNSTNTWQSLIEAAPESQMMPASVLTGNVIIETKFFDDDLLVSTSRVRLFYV
Excerpt: (FIG. 12A). […] (FIG. 12C).

[3] = system: polyQ-AR; test: polyQ-AR degradation in SBMA patient hiPSC-derived myotubes, capillary immunoassay; type: cell-based, human; settings: two donor hiPSC lines, 24 hours
Description: Lysates for hiPSC-derived myotubes were prepared in lysis buffer ([…], 50 mM sodium chloride, 1% NP-40, 1% SDS) supplemented with Halt Protease Inhibitor (78437 Thermo Fisher Scientific), Benzonase, and MgCl2 (1 mM final concentration). The lysates were cleared by centrifugation at 4° C. and supernatants were quantified using the BIO-RAD DC protein assay (5000112 BIO-RAD). The AR and protein levels were quantified by an automated capillary immunoassay experiment (ProteinSimple). The AR and Myosin Protein levels were quantified and normalized to total protein.
Control and SBMA hiPSCs were differentiated into myotubes as previously described (Caron, L. et al. 2016, STEM CELLS Transl. Med. 5, 1145-1161) using the skeletal muscle differentiation kit (Amsbio). hiPSCs were dissociated to single cells using Accutase and plated on Geltrex-coated 10 cm culture plates at a density of 200,000 cells per plate with SBMA hiPSCs in skeletal muscle induction media (SKM01, AMSBIO). Media changes were performed every second day until cells were confluent (˜7 days). The resulting myogenic precursor cells were then dissociated to single cells using Accutase and replated on Matrigel-coated 24-well tissue culture plate with 500 μL of cells at 35,000 cells per mL in skeletal myoblast media (SKM02, AMSBIO). Half media changes were performed every second day until myoblasts reached confluence (˜7 days). The media was then switched to myotube medium (SKM03, ASMBIO). Media changes every second day until myotube formation was confirmed by microscopy. Myotubes were treated on day 20 of differentiation (6 days' worth of SKM03 media) with compounds diluted in DMSO for a final DMSO concentration of 0.01% in SKM03 media. The cells were lysed 24 hours later in Pierce RIPA buffer (Cat. No. 89900, ThermoFisher) supplemented with 1× Halt protease inhibitor cocktail (Cat. No. 87786, ThermoFisher), 1 mM MgCl2, and 1 μL Benzonase Nuclease. AR protein was measured by capillary electrophoresis. […]

[4] = system: polyQ-AR; test: Myotube high content imaging of polyQ-AR in myotubes that overexpress polyQ-AR; type: cell-based, human; settings: 24 hours treatment, nuclear compartment
Description: Cells were maintained in skeletal growth medium (PromoCell #23160). Immortalized myoblasts harboring inducible human androgen receptor with 56 CAG repeats (hAR56Q) were constructed by lentiviral transduction with CMV-rtTA and TetO-AR56Q-T2A-Puromycin (Mamchaoui, K. et al. Skeletal Muscle 1, 34 (2011)).
On day 0, immortalized myoblasts with inducible polyQ-AR (described above in “Cell lines”) cells were seeded onto Geltrex-coated 96-well plates at a density of 4×10^6 cells per plate in myoblast basal media (Promocell C-23060) supplemented with 1% penicillin-streptomycin (Pen Strep) antibiotics. The plates were then incubated overnight at 37° C. in a 5% CO2 environment. Upon reaching 100% confluency (Day 1), the myoblast media were aspirated and replaced with myotube differentiation media (Promocell C-23061). The cells were cultured in this differentiation media for 6 days, with media changes occurring every three days.
On the sixth day of differentiation, the compounds and doxycycline ([…]) diluted in 100% dimethyl sulfoxide (DMSO) were added to the myotubes. The plate was then incubated for 24 hours at 37° C. in an incubator. On the following day (Day 7), the culture media was removed from the plates and replaced with 50 μL of 4% paraformaldehyde (PFA) prepared in 1× phosphate-buffered saline (PBS). The plates were incubated with PFA for 15 minutes, followed by three washes with PBS. Subsequently, the myotubes were permeabilized for 15 minutes using 0.5% Triton X-100 in 1×PBS and then blocked with 5% Bovine Serum Albumin (BSA) (Thermofisher, #37520) for one hour at room temperature. After blocking, the plates were incubated overnight at 4° C. with primary antibodies: a 1:100 diluted Androgen Receptor antibody (D6F11 Cell Signaling 5135S) and a 1:200 diluted Desmin antibody (Thermofisher, MA1-22150) in PBS containing 0.1% BSA. […] Degradation was quantified by determining the average intensity of AR within separate nuclear and cytoplasmic compartments in Desmin positive area (myotubes).

CC(C)N(CC1CCN(c2ncc(C(=O)N[C@H]3C(C)(C)[C@H](Oc4ccc(C#N)c(Cl)c4)C3(C)C)cn2)CC1)[C@H]1C[C@H](Oc2ccc3c(c2)C(=O)N(C2CCC(=O)NC2=O)C3=O)C1 (stereo partly drawn) [Compound A, N-((1r,3r)-3-(3-chloro-4-cyanophenoxy)-2,2,4,4-tetramethylcyclobutyl)-2-(4-((((1r,3r)-3-((2-(2,6-dioxopiperidin-3-yl)-1,3-dioxoisoindolin-5-yl)oxy)cyclobutyl)(isopropyl)amino)methyl)piperidin-1-yl)pyrimidine-5-carboxamide]
DC50 ([1]; DHT present at 500 pM, read-out: DC50 in hiPSC myotubes with DHT): 5.9 nM | DC50 ([1]; without any DHT (0 pM), read-out: DC50 in hiPSC myotubes without DHT): 0.5 nM | reduction of PDE6D by Western blot [2]: ~50% | DC50 [3]: 0.6 to 0.8 nM | Dmax, polyQ-AR in SBMA hiPSC-myotubes [3]: 83-96% | mean Dmax for polyQ-AR in myotube nuclei [4]: approximately 40%
